Entries after “also recorded” stand apart in the source; their conditions may differ.
Columns and labels:
[1] = Size distribution measured by Dynamic Light Scattering (DLS); type: physicochemical
[2] = Stability of a suspension of iron oxide nanoparticles clusters encapsulated by a lipid (DOPC) versus a nucleolipid (DOTAU); settings: Milli-Q water, sonicated 3×15 minutes
Experimental: 75 μL of stock solution of (DOPC) (Avanti Polar ipids, 50 mg/mL in chloroform) and 20 μL of stock solution of iron oxide nanoparticles (10 mg/mL in chloroform) were mixed. The organic phase was added dropwise into the aqueous phase (2 ml of Milli-Q Water) placed in glass tube under stirring by vortex. Then the mixture was placed in a glass flask. Chloroform was removed under vacuum and the resulting crude material solution was sonicated 3 times (3×15 minutes) to give a precipitate.
The same protocol was followed, except that the nucleolipid N-[5′-(2′,3′-dioleoyl)uridine]-N′,N′,N′-trimethylammonium (DOTAU) was used instead of DOPC.

[3] = tested on: Platelet rich plasma (PRP); experiment: In vitro platelet aggregation (light transmission aggregometer); type: cell-based, healthy volunteers; settings: 37° C.
Experimental: Blood was obtained in 1/10th volume of 3.8% sodium citrate from healthy volunteers who had not taken any drugs known to affect platelet function for 2 weeks prior to the study. Platelet rich plasma (PRP) was prepared by centrifugation at 20° C. for 10-15 min at 150-200 g and stored at room temperature.
Platelet-poor plasma (PPP) was prepared by further centrifugation of the remaining plasma at 2700 g for 15 min and was used to calibrate the 100% light transmission of the aggregometer.
The percentage of aggregation was followed versus time. PRP (207 μL) was stirred in cuvette at 37° C. and agonists adenosine 5′-diphosphate (ADP) or thrombin receptor-activating peptide -6 (TRAP-6) were added at 5 s to promote platelet aggregation, and was incubated either with the DOU-PEG2000-based nanocarrier composition containing iron oxide nanoparticles and prostacyclin (PGI2) of example 2, or with the iron oxide nanoparticles clusters encapsulated by diC16dT of preparation 2 (used as negative control) or with the agonist(s) only (negative control) or with the agonist(s) and PGI2 (positive control) for 15 min and 3 h for evaluating PGI2 activity. The in vitro platelet aggregation was determined using a four-channel light transmission aggregometer (APACT 4004, ELITech, France).
The results are shown on FIG. 12, where the curves numbered 1 to 7 represent the following experimental conditions: […]

Question: With “APOA1: Apolipoprotein-A1 (Sigma Aldrich)” as the compound, how does the “size distribution by number measured by DLS (d)” value [1] read?
Answer: 5.01 nm

Question: For `CCCCCCCC/C=C\CCCCCCCC(=O)O[C@@H]1[C@H](OC(=O)CCCCCCC/C=C\CCCCCCCC)[C@@H](C[N+](C)(C)C)O[C@H]1n1ccc(=O)[nH]c1=O` [DOTAU, N-[5′-(2′,3′-dioleoyl)uridine]-N′,N′,N′-trimethylammonium], which “colloidal stability of the iron oxide nanoparticle suspension after sonication” value [2] is on record?
Answer: did not give a precipitate; also recorded: stable colloïdal suspension

Question: Which results are given for `CCCCC[C@H](O)/C=C/[C@@H]1[C@H]2C/C(=C/CCCC(=O)O)O[C@H]2C[C@H]1O` [PGI2, prostacyclin]?
Answer: platelet aggregation induced by ADP ([3]; agonist ADP, 15 min incubation): totally inhibit; platelet aggregation induced by TRAP-6 ([3]; agonist TRAP-6, 3 h incubation): totally inhibit

Reference: patent US20180116972A1, “Lipid based nanocarrier compositions loaded with metal nanoparticles and therapeutic agent” (UNIVERSITE DE BORDEAUX, priority 2015, published 2018)
